Experiment [1] deals with T1, hydroxyacyl Coenzyme A dehydrogenase, type II isoform 1 (Homo sapiens, UniProt Q99714).
T1 construct: endogenous in cells; host or cells: HeLa S3
T1 sequence (Q99714 1-261): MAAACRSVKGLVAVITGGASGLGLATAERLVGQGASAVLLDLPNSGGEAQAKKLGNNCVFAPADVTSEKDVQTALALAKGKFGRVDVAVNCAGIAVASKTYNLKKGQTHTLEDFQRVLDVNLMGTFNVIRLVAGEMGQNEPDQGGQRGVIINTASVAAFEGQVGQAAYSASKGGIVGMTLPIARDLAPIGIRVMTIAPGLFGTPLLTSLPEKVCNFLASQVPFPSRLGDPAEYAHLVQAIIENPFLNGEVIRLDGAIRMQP
Briefly: binding to immobilized V16742 (IVA1/IVA2, HeLa lysate, MS).

The target of experiment [2] is T2, MASTL (Homo sapiens, UniProt Q96GX5).
T2 construct: endogenous in cells; host or cells: HeLa S3
T2 sequence (Q96GX5 1-879): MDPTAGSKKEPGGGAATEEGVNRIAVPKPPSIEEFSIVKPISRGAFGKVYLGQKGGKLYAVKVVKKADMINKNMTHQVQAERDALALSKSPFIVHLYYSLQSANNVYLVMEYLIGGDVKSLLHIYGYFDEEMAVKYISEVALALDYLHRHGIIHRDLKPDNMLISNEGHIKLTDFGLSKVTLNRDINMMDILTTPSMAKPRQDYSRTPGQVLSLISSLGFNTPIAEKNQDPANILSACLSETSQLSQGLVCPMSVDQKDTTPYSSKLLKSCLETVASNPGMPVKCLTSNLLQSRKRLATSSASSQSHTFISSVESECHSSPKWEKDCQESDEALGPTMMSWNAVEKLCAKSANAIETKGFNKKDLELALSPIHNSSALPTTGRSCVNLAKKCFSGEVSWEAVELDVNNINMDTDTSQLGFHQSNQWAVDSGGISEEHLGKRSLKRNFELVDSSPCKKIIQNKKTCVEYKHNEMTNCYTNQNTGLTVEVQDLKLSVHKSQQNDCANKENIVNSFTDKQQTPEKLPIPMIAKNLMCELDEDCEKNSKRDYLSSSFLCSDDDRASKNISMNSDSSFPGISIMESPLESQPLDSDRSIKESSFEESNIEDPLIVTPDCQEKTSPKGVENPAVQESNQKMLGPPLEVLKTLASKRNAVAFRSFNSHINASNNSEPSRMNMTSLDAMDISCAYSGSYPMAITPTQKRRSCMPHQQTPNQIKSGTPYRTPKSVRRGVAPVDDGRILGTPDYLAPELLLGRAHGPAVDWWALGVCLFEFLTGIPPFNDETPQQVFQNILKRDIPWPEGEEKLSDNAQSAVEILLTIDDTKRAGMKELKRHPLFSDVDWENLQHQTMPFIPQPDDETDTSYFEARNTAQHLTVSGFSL
The experiment is described as above.

The target in experiment [3] is T3, MAP3K5 (Homo sapiens, UniProt Q99683).
T3 construct: endogenous in cells; host or cells: HeLa S3
T3 sequence (Q99683 1-1374): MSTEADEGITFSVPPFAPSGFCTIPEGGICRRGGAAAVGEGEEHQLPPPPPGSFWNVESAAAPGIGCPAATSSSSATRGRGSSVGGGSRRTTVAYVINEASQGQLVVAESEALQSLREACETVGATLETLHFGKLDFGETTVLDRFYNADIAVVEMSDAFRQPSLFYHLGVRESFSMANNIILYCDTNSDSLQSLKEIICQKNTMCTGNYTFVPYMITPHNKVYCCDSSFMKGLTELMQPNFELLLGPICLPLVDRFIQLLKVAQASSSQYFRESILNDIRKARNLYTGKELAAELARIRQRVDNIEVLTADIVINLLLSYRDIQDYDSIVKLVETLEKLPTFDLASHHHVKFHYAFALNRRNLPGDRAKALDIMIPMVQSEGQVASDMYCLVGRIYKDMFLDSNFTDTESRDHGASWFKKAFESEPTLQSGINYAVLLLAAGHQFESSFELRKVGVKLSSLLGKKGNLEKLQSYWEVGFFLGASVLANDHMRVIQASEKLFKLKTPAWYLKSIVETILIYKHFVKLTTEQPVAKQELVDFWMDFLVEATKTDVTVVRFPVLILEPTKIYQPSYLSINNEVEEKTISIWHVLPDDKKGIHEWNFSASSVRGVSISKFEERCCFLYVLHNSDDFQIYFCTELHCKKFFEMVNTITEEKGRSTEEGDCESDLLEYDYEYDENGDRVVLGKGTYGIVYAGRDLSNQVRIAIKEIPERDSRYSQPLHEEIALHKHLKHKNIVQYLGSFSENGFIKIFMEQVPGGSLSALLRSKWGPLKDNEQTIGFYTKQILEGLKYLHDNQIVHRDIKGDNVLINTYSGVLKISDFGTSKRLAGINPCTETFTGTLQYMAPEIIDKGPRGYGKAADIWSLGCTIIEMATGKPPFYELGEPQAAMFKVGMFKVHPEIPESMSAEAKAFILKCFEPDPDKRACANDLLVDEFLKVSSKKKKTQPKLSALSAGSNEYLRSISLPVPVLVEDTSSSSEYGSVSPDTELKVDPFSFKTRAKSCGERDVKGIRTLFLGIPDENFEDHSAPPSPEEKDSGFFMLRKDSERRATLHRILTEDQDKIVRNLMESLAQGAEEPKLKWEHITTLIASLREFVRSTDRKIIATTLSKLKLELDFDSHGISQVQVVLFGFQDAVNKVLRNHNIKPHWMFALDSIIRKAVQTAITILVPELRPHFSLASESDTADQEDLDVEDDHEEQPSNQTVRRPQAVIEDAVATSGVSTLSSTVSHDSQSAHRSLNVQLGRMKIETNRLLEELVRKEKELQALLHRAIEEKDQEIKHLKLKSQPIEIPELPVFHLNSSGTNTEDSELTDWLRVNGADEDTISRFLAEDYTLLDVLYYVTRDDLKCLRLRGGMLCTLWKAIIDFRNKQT
The experiment is described as above.

Experiment [4] has as its target CaMK2g (CAMK2G) (Homo sapiens, UniProt Q13555).
[5] abbreviates: average of two experiments, read-out: Kd Avg.

Where two headings read alike, the source gives them in different places.

One may read the Kd as the free concentration of one partner at which half of the binding sites on the other are occupied at equilibrium, for simple one-to-one binding.

CaMK2g (CAMK2G), sequence (Q13555 whole entry): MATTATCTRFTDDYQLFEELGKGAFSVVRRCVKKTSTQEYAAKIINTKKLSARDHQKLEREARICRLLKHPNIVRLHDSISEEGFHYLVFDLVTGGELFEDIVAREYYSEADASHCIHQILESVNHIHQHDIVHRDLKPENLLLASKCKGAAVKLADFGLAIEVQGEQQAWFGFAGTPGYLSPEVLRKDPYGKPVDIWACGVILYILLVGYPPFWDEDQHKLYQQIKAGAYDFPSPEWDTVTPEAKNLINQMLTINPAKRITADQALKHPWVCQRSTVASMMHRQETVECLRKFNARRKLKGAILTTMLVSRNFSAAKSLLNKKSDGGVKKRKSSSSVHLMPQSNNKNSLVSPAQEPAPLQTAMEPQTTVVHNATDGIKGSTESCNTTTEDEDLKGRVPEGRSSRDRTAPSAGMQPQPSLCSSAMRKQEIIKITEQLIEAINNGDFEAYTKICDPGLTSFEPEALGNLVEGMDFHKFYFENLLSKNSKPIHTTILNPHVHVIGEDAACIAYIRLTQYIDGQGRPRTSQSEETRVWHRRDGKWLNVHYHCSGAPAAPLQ

`CC(C)n1c(=O)ccc2cnc(Nc3ccc(OCCN)cc3)nc21` [V16742]: the “Percent bound at various 16742 conc” value in experiment [1] (Experiment 1, 1.87 μM 16742) amounted to 4.41%; in experiment [1] (Experiment 1, 8.74 μM 16742) it was 4.37%; in experiment [1] (Experiment 1, 52 μM 16742), 62.08%; in experiment [1] (Experiment 2, 1.87 μM 16742), 8.75%; in experiment [1] (Experiment 2, 8.74 μM 16742), 10.79%; in experiment [1] (Experiment 2, 52 μM 16742), 41.03%. In addition, the “Percent bound at various 16742 conc” value was 0.55% in experiment [2] (Experiment 1, 1.87 μM 16742); 9.59% in experiment [2] (Experiment 1, 8.74 μM 16742); 51.63% in experiment [2] (Experiment 1, 52 μM 16742); 62.29% in experiment [2] (Experiment 2, 52 μM 16742); 7.42% in experiment [3] (Experiment 1, 1.87 μM 16742); 10.05% in experiment [3] (Experiment 1, 8.74 μM 16742). The “Percent bound at various 16742 conc” value in experiment [3] (Experiment 1, 52 μM 16742) is recorded as 56.90%; in experiment [3] (Experiment 2, 1.87 μM 16742) it was 1.27%; in experiment [3] (Experiment 2, 8.74 μM 16742), 1.00%; in experiment [3] (Experiment 2, 52 μM 16742), 17.64%. The Kd was 42.7 µM in experiment [1] (Experiment 1, read-out: Kd); 72.8 µM in experiment [1] (Experiment 2, read-out: Kd); 57.7 µM in experiment [1] (setting [5]); 53.8 µM in experiment [2] (single Kd value, obtained from only one experiment); 44.5 µM in experiment [3] (Experiment 1, read-out: Kd); 252 µM in experiment [3] (Experiment 2, read-out: Kd). In addition, the Kd in experiment [3] (setting [5]) was 148 µM.

With `COc1cc2ncnc(Nc3ccc(F)c(Cl)c3)c2cc1OCCCN1CCOCC1` [gefitinib], in experiment [4], the “rAVERAGE (10 nM/0 nM Gef.)” value turned out to be 0.95, the “rAVERAGE (100 nM/0 nM Gef.)” value came to 1.08, the “rAVERAGE (1000 nM/0 nM Gef.)” value is given as 1.01 and the “rAVERAGE (10000 nM/0 nM Gef.)” value is reported as 0.92.
